Earlier results, collected in patent US5223503A, “6-substituted pyrido[2,3-d]pyrimidines as antineoplastic agents” (Eli Lilly and Company, priority 1992, dated 1993).

System: solid tumors
Conditions: Proc. Amer. Assoc. Cancer Res., 31, 1053 (1990)

Nc1nc2c(c(=O)[nH]1)CC(CCc1ccc(C(=O)N[C@@H](CCC(=O)O)C(=O)O)cc1)CN2 (stereo partly shown) [lometrexol, 5,10-dideazatetrahydrofolic acid]
clinical efficacy against solid tumors: clinical efficacy against solid tumors
